According to patent US6506737B1, “Antimicrobial phosphonium and sulfonium polyhalide compositions” (Ecolab, Inc., priority 2000, dated 2003):

What was measured:
S. aureus = experiment: Biocidal efficacy, log reduction of S. aureus (Table 2); type: cell-based, Staphylococcus aureus; details: total active 0.12-0.89 mmole/liter as listed per composition; for Log Reduction (S. aureus) (30 seconds): 30 seconds exposure; for Log Reduction (S. aureus) (60 seconds): 60 seconds exposure
[1] = pH of the test solution (Table 3); type: physicochemical; details: test substance at 12 grams per gallon in sterile deionized water
Protocol: (§1) A 4% solution of trimethyl sulfonium triiodide and a solution of 20% hexadecyl tributyl phosphonium diiodochloride were tested at a concentration of 12 grams per gallon in sterile deionized water against Staphylococcus aureus (ATCC 6538).

[2] = tested on: Staphylococcus aureus (ATCC 6538); experiment: Antimicrobial efficacy, log reduction at 12 grams per gallon in sterile deionized water (Table 3); type: cell-based; details: ambient temperature
Protocol: as §1

SMILES | Log Reduction (S. aureus) (30 seconds) (S. aureus) | Log Reduction (S. aureus) (60 seconds) (S. aureus) | pH [1] | Log Reduction ([2]; exposure time 15 seconds) | Log Reduction ([2]; exposure time 30 seconds) | Log Reduction ([2]; exposure time 5 minutes, listed as 20% hexadecyl tributyl phosphonium diiodochloride) | Log Reduction ([2]; exposure time 30 seconds, listed as 4% trimethyl sulfonium triiodide) | Log Reduction ([2]; exposure time 5 minutes)
C[N+](C)(C)CCO.Cl[I-]I [choline chloro diiodide] | >6.9 | >6.9 |  |  |  |  |  | 
CCCC[N+](CCCC)(CCCC)CCCC.Cl[I-]I [tetrabutyl ammonium chloro diiodide] | >6.4 | >6.4 |  |  |  |  |  | 
C[N+](C)(C)C.Cl[I-]I [tetramethyl ammonium chloro diiodide] | 4.0 | >6.8 |  |  |  |  |  | 
CCCCCCCCCCCCCCCC[P+](CCCC)(CCCC)CCCC.Cl[I-]I [tributyl hexadecyl phosphonium chloro diiodide] | 5.0 | 6.2 | 4.61 | 3.74 | 4.98 | 6.21 |  | 
C[S+](C)C.I[I-]I [trimethyl sulfonium triiodide] | >7.0 | >7.0 | 2.52 | 4.67 |  |  | >6.95 | >6.95
